Assay results: patent EP4371976B1, “IONIZABLE LIPIDS AND LIPID NANOPARTICLES CONTAINING THEREOF” (Certest Biotec, S.L., priority 2022, dated 2024)

Tests used:
[1] = RNA encapsulation efficiency of LNPs by Quant-IT Ribogreen; type: physicochemical; conditions: for Encaps. efficiency (%): LNPs with luciferase mRNA, ionizable lipid:non-cationic lipid:sterol:PEG-modified lipid 50:10:38.5:1.5; for Encaps. efficiency: Table 8, LNP 50:10:38.5:1.5, luciferase mRNA
Outline: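 Ribogreen dye assay per manufacturer quantified encapsulated mRNA. Particles were made by adding mRNA in water to the ethanol phase, then 1:1 Tris dilution and overnight dialysis into Tris/15% sucrose; final mRNA set to 100 µg/ml.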

[2] = Size distribution, polydispersity and Z-potential of LNPs by dynamic light scattering (Malvern Zetasizer); type: physicochemical; conditions: LNPs, standard formulation 50:10:38.5:1.5; DLS
Experimental: The LNP solution was then adjusted to a final concentration of mRNA of 100 µg/ml. Size distribution, polydispersity and Z-potential were measured by dynamic light scattering (DLS) using Malvern Zetasizer Advance Lab Blue Label. RNA encapsulation was assessed by Quant-IT® Ribogreen following the manufacturer's instructions.

[3] = system: mice; experiment: LNP stability over time: in vivo transfection (total flux) in mice, fresh versus stored at 4 °C; conditions: LNP 50:10:38.5:1.5
Experimental: Two LNPs comprising: ionizable lipid (Formula I):non-cationic lipid:sterol: PEG-modified lipid
in the ratios 50:10:38.5:1.5 were tested in order to determine their stability. Formulation A comprising VC-LC-0163 as the ionizable lipid was administered to mice and transfection efficiency measured with a fresh preparation in a first experiment, and with a preparation that had been stored for 83 days at T = 4 °C.
Formulation B comprising VC-LC-0263 as the ionizable lipid was administered to mice and transfection efficiency measured with a fresh preparation in a first experiment, and with a preparation that had been stored for 61 days at T = 4 °C.

[4] = system: Female BALB/c mice; experiment: Firefly luciferase expression (total flux, IVIS imaging) in mice after injection of mRNA-loaded LNPs; type: in vivo; conditions: for Total Flux: LNP 50:10:38.5:1.5
Experimental: For in vivo administration, mRNA comprising in the 5' to 3' direction a sequence encoding for luciferase of SEQ ID NO:1, was encapsulated into LNPs following the procedure described in Hassett, K. J. et al., "Optimization of Lipid Nanoparticles for Intramuscular Administration of mRNA Vaccines", 2019, Mol. Ther. Nucleic Acid, vol. 15, pp. 1-11. Briefly, the purified mRNAs were first diluted in sodium citrate buffer at pH=4 at a final concentration of 266 µg/ml. Separately, a mixture of the ionizable lipid of the invention:DSPC (Merk 850365P):cholesterol (Sigma C3045):DMG-PEG2000 (Cayman 33945-1) were dissolved into ethanol at the respective molar percentages of 50:10:38.5:1.5, and with a lipid-nitrogen-to-phosphate ratio (N:P) ratio of 5,5:1.
The mRNA aqueous solution was then carefully added to the ethanol solution, and the resulted solution was homogenized by pipetting up and down for 4-5 times. The resulting LNPs were immediately diluted 1:1 with Tris buffer and dialyzed overnight against Tris buffer containing 15% sucrose. The resulting LNP solution was then collected, and the encapsulated mRNA was assessed by Quant-IT® Ribogreen (Invitrogen R11490) following the manufacturer's instructions.
Female BALB/c mice (Charles River Laboratories), 8-10-week-old, weighting 18-23 g, were acclimatized to new conditions upon arrival to experimental facilities for 3-7 days. Housing conditions were room temperature 20-24 °C, humidity 50-70 %, and light intensity 60 lux with a light-dark cycle of 12 hours.
For Firefly Luciferase activity measurement in mice, LNPs produced as indicated above (ionizable lipid:helper lipid: sterol:PEG-modified lipid → 50:10:38.5:1.5) and containing 5 µg of the indicated mRNA in 50 µl final volume, were injected intramuscularly.
From 4 to 72 hours after RNA-LPN inoculation mice were anaesthetized by inhalation with 4% of isoflurane using a vaporizer. The maintenance of the anaesthesia was performed at 1.5% of isoflurane. Then, D-luciferin (Quimigen, 12507) was injected intraperitoneally at 150 mg/kg, normally ~200 µL of the stock at 15 mg/mL in PBS for a 20 g mouse. Luciferase images were acquired 10 minutes after luciferin inoculation using the IVIS Lumina XRMS Imaging System following manufacturer's instructions.

[5] = Apparent pKa of LNPs comprising the ionizable lipid (Table 6); conditions: standard formulation 50:10:38.5:1.5
[6] = system: HEK293T cells; conditions: reported by Molla et al., cited from earlier work
[7] = percentage of RNA entrapped in the LNP
[8] = Table 8, mice, intramuscular, 5 µg luciferase mRNA in 50 µl

Row | Compound | Encaps. efficiency (%) [1, 7] | P.D.I. [2] | Particle size/ Ø (nm) [2] | Z Potential (± D.E.) [mV] [2] | Total flux (p·s^-1) ([3]; t = 0, fresh preparation) | Total flux (p·s^-1) ([3]; t = 61 days, stored at 4 °C) | Total Flux [4, 8] | Encaps. efficiency [1] | Apparent pKa [5] | Total Flux ([4]; Table 6, in vivo after injection) | encapsulation efficiency ([1]; Table 6, percentage of RNA entrapped in the LNP, LNP 50:10:38.5:1.5) | transfection (luminescence) in vivo ([4]; Figure 2, intramuscular injection, LNP 50:10:38.5:1.5 encapsulating luciferase mRNA) | transfection efficiency ([6]; HEK293T cells, without addition of helper lipids) | toxicity ([6]; liposomes, in vitro)
1 | CCCCCCCCCCCCCCCCOC(=O)CCSCCC(NC(=O)C(CCCCCC)CCCCCCCC)C(=O)NCCCn1ccnc1 (stereo not drawn) [VC-LC-0263] | 60.70% | 0.13 | 188.6 nm | -17.30 mV | 1.19E+08 p·s^-1 | 5.07E+07 p·s^-1 |  |  |  |  |  |  |  | 
2 | CCCCCCCCCCC(CCCCCCCC)C(=O)NC(CCSCCC(=O)OCC(CCCCCC)CCCCCCCC)C(=O)NCC1CCN(C)CC1 (stereo not drawn) [VC-LC-0508] | 91.49% | 0.13 | 152.6 nm | -2.43 mV |  |  | 1.7E+08 p·s^-1 | 91.49% | 7.48 |  |  |  |  | 
3 | CCCCCCCCCCC(CCCCCCCC)C(=O)NC(CCSCCC(=O)OCCCCCC(C)C)C(=O)NCC1CCN(C)CC1 (stereo not drawn) [VC-LC-0515] | 98.61% | 0.12 | 141.7 nm | 1.90 mV |  |  | 3.0E+07 p·s^-1 | 98.61% | 7.26 |  |  |  |  | 
4 | CCCCCCCC/C=C\CCCCCCCCOC(=O)CCSCC(CC(=O)NC1CCN(C)CC1)C(=O)OCC(CCCCCC)CCCCCCCC (stereo not drawn) [VC-LC-0539] | 85.33% | 0.13 | 176.7 nm | -1.24 mV |  |  | 3.6E+07 p·s^-1 | 85.3% | 6.90 |  |  |  |  | 
5 | CCCCCCCCC(CCCCCCCC)OC(=O)C(CSCCC(=O)OCCCCCC)CC(=O)NCCCN1CCOCC1 (stereo not drawn) [VC-LC-0550] | 26.96% | 0.16 | 173.7 nm | -14.52 mV |  |  |  |  | 6.53 | 3,4·10^7 p·s^-1 | 26.96% |  |  | 
6 | CCCCCCCCOC(=O)CCSCC(CC(=O)NCCCN1CCOCC1)C(=O)OC(CCCCCCCC)CCCCCCCC (stereo not drawn) [VC-LC-0551] | 29.06% | 0.15 | 155.3 nm | -11.66 mV |  |  | 1.1E+08 p·s^-1 | 29.06% | 6.51 |  |  |  |  | 
7 | CCCCCCCCCCC(CCCCCCCC)C(=O)NC(CCSCCC(=O)OCCCCCCCC(C)C)C(=O)NC1CCN(C)CC1 (stereo not drawn) [VC-LC-0558] | 50.58% | 0.11 | 155.2 nm | -6.62 mV |  |  | 7.9E07 p·s^-1 | 50.6% | 5.95 |  |  |  |  | 
8 | CCCCCCCC/C=C\CCCCCCCCC(=O)CC(CCSSCCCCCCCCCCCC)C(=O)NCCN1CCN(C)CC1 (stereo not drawn) [VC-LC-0588] |  |  |  |  |  |  |  |  |  |  |  | no transfection | about 95% | low toxicity
